Measured values from ChEMBL document CHEMBL4184295, “7α,15-Dihydroxydehydroabietic acid from Pinus koraiensis inhibits the promotion of angiogenesis through downregulation of VEGF, p-Akt and p-ERK in HUVECs” (Bioorg Med Chem Lett, 2018).
Blank lines part the entries; values can stand above or below the molecule they belong to.

Columns and labels:
HUVEC [1] = assay: Cytotoxicity against HUVEC assessed as reduction in cell viability up to 100 uM after 24 hrs by MTT assay; type: cell-based; conditions: human
HUVEC [2] = assay: Antiangiogenic activity against HUVEC assessed as reduction in tube formation at 100 uM after 24 hrs by matrigel-based light microscopic analysis relative to control; type: functional, Homo sapiens; design: scale not given: the % may be the effect or the level left
HUVEC [3] = assay: Inhibition of ERK phosphorylation in HUVEC at 6.25 uM after 24 hrs by Western blot analysis relative to control; type: cell-based; conditions: Homo sapiens
HUVEC [4] = assay: Down regulation of VEGF expression in HUVEC at 6.25 uM after 24 hrs by Western blot analysis relative to control; type: functional, Homo sapiens
[5] = biological target: RAC-alpha serine/threonine-protein kinase (Homo sapiens) (UniProt P31749); assay: Inhibition of AKT phosphorylation in HUVEC at 6.25 uM after 24 hrs by Western blot analysis relative to control; type: cell-based
Chain of RAC-alpha serine/threonine-protein kinase (Homo sapiens) (P31749 whole entry): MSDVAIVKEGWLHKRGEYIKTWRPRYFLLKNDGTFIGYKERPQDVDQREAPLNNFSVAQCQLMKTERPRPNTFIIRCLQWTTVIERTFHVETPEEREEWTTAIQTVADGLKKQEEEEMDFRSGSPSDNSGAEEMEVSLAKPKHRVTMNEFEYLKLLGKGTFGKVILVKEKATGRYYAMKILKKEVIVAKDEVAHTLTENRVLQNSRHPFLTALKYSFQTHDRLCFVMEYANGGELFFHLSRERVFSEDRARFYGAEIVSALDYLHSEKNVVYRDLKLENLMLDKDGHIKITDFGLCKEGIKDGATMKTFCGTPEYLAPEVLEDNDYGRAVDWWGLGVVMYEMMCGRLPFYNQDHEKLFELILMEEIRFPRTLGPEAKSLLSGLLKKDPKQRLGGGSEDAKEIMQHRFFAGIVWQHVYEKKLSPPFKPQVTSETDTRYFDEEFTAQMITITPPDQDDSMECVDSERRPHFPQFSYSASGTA

HUVEC [6] = assay: Inhibition of ERK phosphorylation in HUVEC at 3.125 uM after 24 hrs by Western blot analysis relative to control; type: cell-based; conditions: Homo sapiens
HUVEC [7] = assay: Antiangiogenic activity against HUVEC assessed as reduction in tube formation at 6.25 uM after 24 hrs by matrigel-based light microscopic analysis relative to control; type: functional, Homo sapiens; design: scale not given: the % may be the effect or the level left
[8] = biological target: RAC-alpha serine/threonine-protein kinase (Homo sapiens) (UniProt P31749); assay: Inhibition of AKT phosphorylation in HUVEC at 3.125 uM after 24 hrs by Western blot analysis relative to control; type: cell-based
HUVEC [9] = assay: Down regulation of VEGF expression in HUVEC at 3.125 uM after 24 hrs by Western blot analysis relative to control; type: functional, Homo sapiens
HUVEC [10] = assay: Antiangiogenic activity against HUVEC assessed as reduction in tube formation at 12.5 uM after 24 hrs by matrigel-based light microscopic analysis relative to control; type: functional, Homo sapiens; design: scale not given: the % may be the effect or the level left

SMILES: CC1=CC[C@@H](C(C)(C)O)C[C@@H]1O
Activity (HUVEC [1]): Non-Toxic

SMILES: C=C1CC[C@@H]2[C@](C)(CCC[C@@]2(C)C(=O)O[C@@H]2O[C@H](CO)[C@@H](O)[C@H](O)[C@H]2O)[C@H]1CCC1=CCOC1=O
Activity (HUVEC [1]): Toxic

SMILES: C=C(C)[C@@H]1CC[C@](C)(O)[C@@H](O)C1
Activity (HUVEC [1]): Toxic

SMILES: CC(C)(O)c1ccc2c(c1)[C@@H](O)C[C@H]1[C@](C)(C(=O)O)CCC[C@]21C
Activity (HUVEC [1]): Non-Toxic | Activity (HUVEC [2]): 8.95%

fold change (FC) [5]: 0.68 | fold change (FC) [8]: 1.1
SMILES: CC(C)(O)c1ccc2c(c1)[C@H](O)C[C@H]1[C@](C)(C(=O)O)CCC[C@]21C
fold change (FC) (HUVEC [3]): 0.82 | Activity (HUVEC [1]): Toxic | fold change (FC) (HUVEC [4]): 0.69 | fold change (FC) (HUVEC [6]): 0.98 | Activity (HUVEC [7]): 20.53% | fold change (FC) (HUVEC [9]): 0.89

SMILES: CC(C)c1ccc2c(c1)CC[C@H]1[C@](C)(C(=O)O)CCC[C@]21C [DEHYDROABIETIC ACID]
Activity (HUVEC [10]): 12.09% | Activity (HUVEC [1]): Toxic

SMILES: O=C(O)c1ccc(O)cc1 [PARABEN]
Activity (HUVEC [1]): Non-Toxic

SMILES: CC(C)(O)c1ccc2c(c1)C(=O)C[C@H]1[C@](C)(C(=O)O)CCC[C@]21C
Activity (HUVEC [1]): Non-Toxic
